Results taken from patent US8163700B2, “Inhibitors of myelin-associated glycoprotein (MAG) activity for regulating neural growth and regeneration” (Research Foundation of City University of New York, priority 2002, dated 2012).
Residue numbers refer to the chain shown, from its start. Numbers in names are those of the source. Entries after “also recorded” stand apart in the source; their conditions may differ.

B1: MAG(R491E)-Fc: murine MAG-Fc with point mutation R491E, Ig domain 5/TM (protein, UniProt P20917 20-516, looked up, variant R491E)
extracellular domain: GHWGAWMPSTISAFEGTCVSIPCRFDFPDELRPAVVHGVWYFNSPYPKNYPPVVFKSRTQVVHESFQGRSRLLGDLGLRNCTLLLSTLSPELGGKYYFRGDLGGYNQYTFSEHSVLDIVNTPNIVVPPEVVAGTEVEVSCMVPDNCPELRPELSWLGHEGLGEPTVLGRLREDEGTWVQVSLLHFVPTREANGHRLGCQAAFPNTTLQFEGYASLDVKYPPVIVEMNSSVEAIEGSHVSLLCGADSNPPPLLTWMRDGMVLREAVAKSLYLDLEEVTPGEDGVYACLAENAYGQDNRTVELSVMYAPWKPTVNGTVVAVEGETVSILCSTQSNPDPILTIFKEKQILATVIYESQLQLELPAVTPEDDGEYWCVAENQYGQRATAFNLSVEFAPIILLESHCAAARDTVQCLCVVKSNPEPSVAFELPSRNVTVNETEREFVYSERSGLLLTSILTIRGQAQAPPRVICTSENLYGTQSLELPFQGAHRLMWAKIGP
modifications: extracellular domain Fc fusion
notes: murine MAG-Fc with point mutation R491E, Ig domain 5/TM
B2: MAG(L431D)-Fc: murine MAG-Fc with point mutation L431D, Ig domain 5 (protein, listed as Mus sp.)
chain: MIFLATLPLFWIMISASRGGHWGAWMPSTISAFEGTCVSIPCRFDFPDELRPAVVHGVWYFNSPYPKNYPPVVFKSRTQVVHESFQGRSRLLGDLGLRNCTLLLSTLSPELGGKYYFRGDLGGYNQYTFSEHSVLDIVNTPNIVVPPEVVAGTEVEVSCMVPDNCPELRPELSWLGHEGLGEPTVLGRLREDEGTWVQVSLLHFVPTREANGHRLGCQAAFPNTTLQFEGYASLDVKYPPVIVEMNSSVEAIEGSHVSLLCGADSNPPPLLTWMRDGMVLREAVAKSLYLDLEEVTPGEDGVYACLAENAYGQDNRTVELSVMYAPWKPTVNGTVVAVEGETVSILCSTQSNPDPILTIFKEKQILATVIYESQLQLELPAVTPEDDGEYWCVAENQYGQRATAFNLSVEFAPIILLESHCAAARDTVQCDCVVKSNPEPSVAFELPSRNVTVNETEREFVYSERSGLLLTSILTIRGQAQAPPRVICTSRNLYGTQSLELPFQGAHRLMWAKIGPVGAVVAFAILIAIVCYITQTRRKKNVTESSSFSGGDNPHVLYSPEFRISGAPDKYESREVSTRDCH
modifications: Fc fusion
B3: MAG(R485D)-Fc: murine MAG-Fc with point mutation R485D, Ig domain 5 (protein, listed as Mus sp.)
chain: B2 chain with D431L, R485D
modifications: Fc fusion
B4: MAG(E445K)-Fc: murine MAG-Fc with point mutation E445K, Ig domain 5 (protein, listed as Mus sp.)
chain: B2 chain with D431L, E445K
modifications: Fc fusion
B5: MAG(K435E)-Fc: murine MAG-Fc with point mutation K435E, Ig domain 5 (protein, listed as Mus sp.)
chain: B2 chain with D431L, K435E
modifications: Fc fusion

Key:
[1] = test system: cerebellar neurons on CHO cells expressing MAG; assay: Neurite outgrowth on MAG-expressing CHO cells in the presence of MAG peptides (FIGS. 4 and 5); assay type: cell-based; details: for attenuation of inhibition of neurite outgrowth by MAG: peptide 20 μM, 18 hours, FIG. 5; for effect on the ability of MAG-expressing cells to inhibit neurite outgrowth / neurite length relative to neurites extended without peptide or with MAG Igd4 peptides: peptide 15 μM, overnight, FIG. 4; for neurite length relative to neurites extended without peptide or with MAG Igd4 peptides: neurons on MAG-expressing cells
Experimental: FIG. 4 Inhibition of neurite outgrowth from cerebellar neurons by MAG; peptides Cerebellar neurons were isolated (Example 1) and grown overnight on a monolayer of control-transfected CHO cells (not shown) or CHO cells expressing MAG in the absence (striped bar) or the presence (grey bars) of MAG peptides (15 μM) derived from MAG Ig-like domain 4 or 5. Neurons were stained for GAP-43 antigen and neurite length was measured. Results are shown as number of neurons in each treatment having neurites longer than two times the length of the cell body.
FIG. 5 Inhibition of neurite outgrowth from cerebellar neurons by MAG peptides Cerebellar neurons were isolated (Example 1) and grown for 18 hrs on a monolayer of control-transfected CHO cells (R2) or CHO cells expressing MAG in the absence of a peptide (MAG) or in the presence of a peptide derived from sialoadhesin Ig-like domain 5 (non-MAG “control peptide”) or a MAG peptide (M433 or M462 at 20 μM) derived from MAG Ig-like domain 5. Neurons were stained for GAP-43 antigen and neurite length was measured and the average length was calculated for 180-200 neurons (+/−SEM).
Confluent monolayers of control, MAG-, truncated MAG- or chimeric MAG-Sn-expressing CHO cells were established over a 24-hour (h) period in individual chambers of an 8-well tissue culture slide (Lab-Tek). Co-cultures were established as described previously (Doherty et al., Nature, 343, pp. 464-66 (1990); Neuron, 5, pp. 209-19 (1990); Mukhopadhyay et al., Neuron, 13, pp. 757-67 (1994)) by adding approximately 5000 cerebellar neurons to the CHO monolayers. Culture medium was SATO containing 2% FCS. After periods of time as indicated, the co-cultures were fixed for 30 minutes (min) with 4% paraformaldehyde and permeabilized with ice-cold methanol for 2 min. The cells were then blocked for 30 min with DMEM containing 10% FCS and incubated for 2 h with a rabbit polyclonal antibody against the neuronal marker GAP43 (1:4000). Cells were washed three times with PBS-BSA (2%) and then incubated for 30 min at room temperature with a biotinylated donkey anti-rabbit Ig (1:300, Amersham), washed three times, and incubated with streptavidin-conjugated Texas Red (1:300, Amersham) for 30 min. After three more washes, the slides were mounted in Permfluor (Baxter) and viewed with a Zeiss fluorescent microscope. The length of the longest neurite for each GAP43-positive neuron was determined using the Biological Detection System image analysis program (Pittsburgh).
Peptides corresponding to amino acid residues […] of MAG (MAG(343-371)), amino acid residues 363-397 (MAG(363-397)), amino acid residues 394-428 (MAG(394-428)), amino acid residues 422-451 (MAG(422-451)), amino acid residues 442-471 (MAG(442-471)), and amino acid residues 461-498 (MAG(461-498)) were synthesized. Peptides were obtained from SynPep Corp. (Dublin, Calif.). MAG(343-371), MAG(363-397) and MAG(394-428) correspond to amino acid residues from the Ig4 domain of MAG. MAG(422-451), MAG(442-471) and MAG(461-498) corresponds to amino acid residues from the Ig5 domain of MAG. […] Results are shown in FIG. 4 (and are represented as number of neurons with processes longer than 2-times the cell diameter). […] Results are shown in FIG. 5 (and are represented as average neurite length for 180-200 neurons).

cerebellar neurons = assay: Neurite outgrowth on L1-Fc substrate in the presence of soluble MAG-Fc chimeras (FIG. 3); assay type: cell-based; details: soluble protein 25 μg/ml, 18 hours, compared to control chimera
Experimental: FIG. 3 Inhibition of neurite outgrowth from cerebellar neurons by MAG-Fc Derivatives Cerebellar neurons were isolated (Example 1) and plated onto a growth promoting substrate of L1 protein (Example 4). A control MUC-Fc fusion (clear bar), wild-type MAG-Fc (striped bar) and MAG-Fc derivatives having point mutations in MAG Ig-like domains 4 or 5 (grey bars) were constructed (Example 4) and added in soluble form to neurons (25 μg/ml). After 18 hours, cultures were fixed and stained for GAP-43 antigen. Neurite length was measured and the average length was calculated for 180-200 neurons (+/−SEM).
Individual wells of an eight-chamber tissue culture plastic slide (Lab-Tek, Nuc. Inc.) were incubated with 0.3 nil of 16.6 μg/ml poly-1-lysine in sterile water for at least one hour under sterile conditions. Each well was washed twice with 400 μl of a 0.1M sodium bicarbonate solution, pH 9.6, and then received 0.3 ml of 0.1M sodium bicarbonate solution, pH 9.6, containing 15 μg/ml goat anti-human IgG (Fc-specific) monoclonal antibody (Sigma). The wells were incubated for 2 hours (h) at 37° C., and washed three times with 0.4 ml of ice-cold DMEM. Each well then received 0.3 nil of DMEM containing 40 μg/ml of L1-Fc and was incubated for 2-4 h at 37° C. The welts were washed twice DMEM.
Cerebellar neurons (post-natal days 2-7) were dissociated by trypsinization as described in Example 1, except that the dissociated neurons were resuspended in 5 ml of SATO medium containing 2% dialyzed FBS. To an individual well coated with a monolayer of L1-Fc as described above, 5.0×10^4 cerebellar neurons were added, followed by addition of one of the mutant MAG-Fc or MUC18-Fc chimeric soluble protein described above at a concentration of 25 μg/ml. Neurons were cultured for 18 hours at 37° C., and then fixed and stained for GAP43 essentially as described in Example 2. Neurite length was measured for 180-200 neurons.

Molecule	effect on the ability of MAG-expressing cells to inhibit neurite outgrowth [1]	inhibition of neurite outgrowth (in words) (cerebellar neurons)	also measured
M433: peptide of MAG amino acid residues 433-457 (SEQ ID NO: 20) (VVKSNPEPSVAFELPSRNVTVNETE)	–	–	attenuation of inhibition of neurite outgrowth by MAG [1]: even more strongly attenuated inhibition by MAG
M462: peptide of MAG amino acid residues 462-486 (SEQ ID NO: 24) (YSERSGLLLTSILTLRGQAQAPPRV)	–	–	attenuation of inhibition of neurite outgrowth by MAG [1]: even more strongly attenuated inhibition by MAG
MAG(422-451): peptide of MAG amino acid residues 422-451 (SEQ ID NO: 15) (AAARDTVQCLCVVKSNPEPSVAFELPSRNV)	strongly attenuated inhibition by MAG	–	neurite length relative to neurites extended without peptide or with MAG Igd4 peptides [1]: at least twice as long
MAG(442-471): peptide of MAG amino acid residues 442-471 (SEQ ID NO: 16) (VAFELPSRNVTVNETEREFVYSERSGLLLT)	strongly attenuated inhibition by MAG	–	neurite length relative to neurites extended without peptide or with MAG Igd4 peptides [1]: at least twice as long
MAG(461-498): 38 amino acid peptide of MAG residues 461-498 (SEQ ID NO: 23) (VYSERSGLLLTSILTLRGQAQAPPRVICTSRNLYGTQS)	no apparent effect on inhibition of neurite outgrowth by MAG; also recorded: does not reduce the ability of wild-type MAG to inhibit neurite outgrowth	–	–
B1	–	none	–
B2	–	none	–
B3	–	none	–
B4	–	none	–
B5	–	none	–
